Experimental data published in ChEMBL document CHEMBL4304773, “Nitroimidazole-containing compounds and their antibacterial and antitubercular activities” (2019).
Values after ≈ are worked out from the molar mass of the structure shown.

Columns and labels:
Assay type in all cases: functional
[1] = test system: Escherichia coli; assay: Antibacterial activity against Escherichia coli ATCC 25922 after 24 hrs; settings: ATCC 25922, 24 h
[2] = test system: Pseudomonas aeruginosa; assay: Antibacterial activity against Pseudomonas aeruginosa after 24 hrs
[3] = test system: Staphylococcus aureus; assay: Antibacterial activity against Staphylococcus aureus ATCC 29213 after 24 hrs; settings: ATCC 29213, 24 h
[4] = test system: Klebsiella pneumoniae; assay: Antibacterial activity against Klebsiella pneumoniae after 24 hrs
[5] = test system: Staphylococcus aureus; assay: Antibacterial activity against Staphylococcus aureus ATCC 25923 after 24 hrs; settings: ATCC 25923, 24 h
[6] = test system: Staphylococcus aureus; assay: Antibacterial activity against methicillin-resistant Staphylococcus aureus after 24 hrs
[7] = test system: Enterococcus faecalis; assay: Antibacterial activity against Enterococcus faecalis after 24 hrs
[8] = test system: Pseudomonas aeruginosa; assay: Antibacterial activity against Pseudomonas aeruginosa ATCC 27853 after 24 hrs; settings: ATCC 27853, 24 h
[9] = test system: Escherichia coli; assay: Antibacterial activity against Escherichia coli
[10] = test system: Staphylococcus aureus; assay: Antibacterial activity against Staphylococcus aureus
[11] = test system: Bacillus subtilis; assay: Antibacterial activity against Bacillus subtilis
[12] = test system: Pseudomonas aeruginosa; assay: Antibacterial activity against Pseudomonas aeruginosa
[13] = test system: Candida albicans; assay: Antifungal activity against Candida albicans

Structure (SMILES)	MIC [1]	MIC [2]	MIC [3]	MIC [4]	MIC [5]	MIC [6]	MIC [7]	MIC [8]	MIC [9]	MIC [10]	MIC [11]	MIC [12]	MIC [13]
C#CCOc1c(OC)cc(/C=C(\C#N)n2cc([N+](=O)[O-])nc2C)c2c1CN1CCc3cc4c(cc3C1C2)OCO4 (centres undefined)	3 to 1020 µM (≈ 1.62 to 551 µg/mL)	3 to 1020 µM (≈ 1.62 to 551 µg/mL)	3 to 1020 µM (≈ 1.62 to 551 µg/mL)	3 to 1020 µM (≈ 1.62 to 551 µg/mL)	3 to 1020 µM (≈ 1.62 to 551 µg/mL)	3 to 1020 µM (≈ 1.62 to 551 µg/mL)	3 to 1020 µM (≈ 1.62 to 551 µg/mL)	3 to 1020 µM (≈ 1.62 to 551 µg/mL)					
COc1cc(/C=C(\C#N)n2cc([N+](=O)[O-])nc2C)c2c(c1OCCO)CN1CCc3cc4c(cc3C1C2)OCO4 (centres undefined)	3 to 1020 µM (≈ 1.64 to 557 µg/mL)	3 to 1020 µM (≈ 1.64 to 557 µg/mL)	3 to 1020 µM (≈ 1.64 to 557 µg/mL)	3 to 1020 µM (≈ 1.64 to 557 µg/mL)	3 to 1020 µM (≈ 1.64 to 557 µg/mL)	3 to 1020 µM (≈ 1.64 to 557 µg/mL)	3 to 1020 µM (≈ 1.64 to 557 µg/mL)	3 to 1020 µM (≈ 1.64 to 557 µg/mL)					
COc1cc(/C=C(\C#N)n2cc([N+](=O)[O-])nc2C)c2c(c1OCc1ccc(Cl)cc1)CN1CCc3cc4c(cc3C1C2)OCO4 (centres undefined)	3 to 1020 µM (≈ 1.88 to 639 µg/mL)	3 to 1020 µM (≈ 1.88 to 639 µg/mL)	3 to 1020 µM (≈ 1.88 to 639 µg/mL)	3 to 1020 µM (≈ 1.88 to 639 µg/mL)	3 to 1020 µM (≈ 1.88 to 639 µg/mL)	3 to 1020 µM (≈ 1.88 to 639 µg/mL)	3 to 1020 µM (≈ 1.88 to 639 µg/mL)	3 to 1020 µM (≈ 1.88 to 639 µg/mL)					
COc1cc(/C=C(\C#N)n2cc([N+](=O)[O-])nc2C)c2c(c1OCC#N)CN1CCc3cc4c(cc3C1C2)OCO4 (centres undefined)	3 to 1020 µM (≈ 1.62 to 552 µg/mL)	3 to 1020 µM (≈ 1.62 to 552 µg/mL)	3 to 1020 µM (≈ 1.62 to 552 µg/mL)	3 to 1020 µM (≈ 1.62 to 552 µg/mL)	3 to 1020 µM (≈ 1.62 to 552 µg/mL)	3 to 1020 µM (≈ 1.62 to 552 µg/mL)	3 to 1020 µM (≈ 1.62 to 552 µg/mL)	3 to 1020 µM (≈ 1.62 to 552 µg/mL)					
COc1ccccc1Cc1nnc(Cn2c([N+](=O)[O-])cnc2C)o1									3.12 to 4.56 µg/mL (≈ 9.47 to 13.8 µM)	3.12 to 4.56 µg/mL	3.12 to 4.56 µg/mL (≈ 9.47 to 13.8 µM)	3.12 to 4.56 µg/mL (≈ 9.47 to 13.8 µM)	
CC(=O)N1N=C(Cn2c([N+](=O)[O-])cnc2C)OC1c1ccc(C)cc1 (centres undefined)									0.25 to 0.5 µg/mL (≈ 0.728 to 1.46 µM)	0.25 to 0.5 µg/mL	0.25 to 0.5 µg/mL (≈ 0.728 to 1.46 µM)	0.25 to 0.5 µg/mL (≈ 0.728 to 1.46 µM)	0.25 to 0.5 µg/mL (≈ 0.728 to 1.46 µM)
COc1cc(/C=C(\C#N)n2cc([N+](=O)[O-])nc2C)c2c(c1OCc1ccc(Cl)cc1Cl)CN1CCc3cc4c(cc3C1C2)OCO4 (centres undefined)	3 to 1020 µM (≈ 1.98 to 674 µg/mL)	3 to 1020 µM (≈ 1.98 to 674 µg/mL)	3 to 1020 µM (≈ 1.98 to 674 µg/mL)	3 to 1020 µM (≈ 1.98 to 674 µg/mL)	3 to 1020 µM (≈ 1.98 to 674 µg/mL)	3 to 1020 µM (≈ 1.98 to 674 µg/mL)	3 to 1020 µM (≈ 1.98 to 674 µg/mL)	3 to 1020 µM (≈ 1.98 to 674 µg/mL)					
CC(=O)N1N=C(Cn2c([N+](=O)[O-])cnc2C)OC1c1ccc2c(c1)OCO2 (centres undefined)									0.25 to 0.5 µg/mL (≈ 0.67 to 1.34 µM)	0.25 to 0.5 µg/mL	0.25 to 0.5 µg/mL (≈ 0.67 to 1.34 µM)	0.25 to 0.5 µg/mL (≈ 0.67 to 1.34 µM)	0.25 to 0.5 µg/mL (≈ 0.67 to 1.34 µM)
CC(=O)N1N=C(Cn2c([N+](=O)[O-])cnc2C)OC1c1ccc([N+](=O)[O-])cc1 (centres undefined)									0.25 to 0.5 µg/mL (≈ 0.668 to 1.34 µM)	0.25 to 0.5 µg/mL	0.25 to 0.5 µg/mL (≈ 0.668 to 1.34 µM)	0.25 to 0.5 µg/mL (≈ 0.668 to 1.34 µM)	0.25 to 0.5 µg/mL (≈ 0.668 to 1.34 µM)
CC(=O)N1N=C(Cn2c([N+](=O)[O-])cnc2C)OC1c1ccc(Cl)cc1 (centres undefined)									0.25 to 0.5 µg/mL (≈ 0.687 to 1.37 µM)	0.25 to 0.5 µg/mL	0.25 to 0.5 µg/mL (≈ 0.687 to 1.37 µM)	0.25 to 0.5 µg/mL (≈ 0.687 to 1.37 µM)	0.25 to 0.5 µg/mL (≈ 0.687 to 1.37 µM)
OC(Cn1cncn1)(Cn1cncn1)c1ccc(F)cc1F [FLUCONAZOLE]									0.25 µg/mL (≈ 0.816 µM)	0.25 µg/mL	0.25 µg/mL (≈ 0.816 µM)	0.25 µg/mL (≈ 0.816 µM)	0.25 µg/mL (≈ 0.816 µM)
CC(=O)N1N=C(Cn2c([N+](=O)[O-])cnc2C)OC1(C)c1ccccc1 (centres undefined)									0.25 to 0.5 µg/mL (≈ 0.728 to 1.46 µM)	0.25 to 0.5 µg/mL	0.25 to 0.5 µg/mL (≈ 0.728 to 1.46 µM)	0.25 to 0.5 µg/mL (≈ 0.728 to 1.46 µM)	0.25 to 0.5 µg/mL (≈ 0.728 to 1.46 µM)
CCOc1c(OC)cc(/C=C(\C#N)n2cc([N+](=O)[O-])nc2C)c2c1CN1CCc3cc4c(cc3C1C2)OCO4 (centres undefined)	3 to 1020 µM (≈ 1.59 to 541 µg/mL)	3 to 1020 µM (≈ 1.59 to 541 µg/mL)	3 to 1020 µM (≈ 1.59 to 541 µg/mL)	3 to 1020 µM (≈ 1.59 to 541 µg/mL)	3 to 1020 µM (≈ 1.59 to 541 µg/mL)	3 to 1020 µM (≈ 1.59 to 541 µg/mL)	3 to 1020 µM (≈ 1.59 to 541 µg/mL)	3 to 1020 µM (≈ 1.59 to 541 µg/mL)					
Cc1nc([N+](=O)[O-])cn1Cc1nn(CN2CCNCC2)c(=S)o1										184 µM			
COc1ccc2cc3[n+](cc2c1OC)CCc1cc2c(cc1-3)OCO2 [BERBERINE]	11 to 688 µM	11 to 688 µM	11 to 688 µM	11 to 688 µM	11 to 688 µM	11 to 688 µM	11 to 688 µM	11 to 688 µM					
COc1cc(/C=C(\C#N)n2cc([N+](=O)[O-])nc2C)c2c(c1OCc1ccccc1Cl)CN1CCc3cc4c(cc3C1C2)OCO4 (centres undefined)	3 to 1020 µM (≈ 1.88 to 639 µg/mL)	3 to 1020 µM (≈ 1.88 to 639 µg/mL)	3 to 1020 µM (≈ 1.88 to 639 µg/mL)	3 to 1020 µM (≈ 1.88 to 639 µg/mL)	3 to 1020 µM (≈ 1.88 to 639 µg/mL)	3 to 1020 µM (≈ 1.88 to 639 µg/mL)	3 to 1020 µM (≈ 1.88 to 639 µg/mL)	3 to 1020 µM (≈ 1.88 to 639 µg/mL)					
CC(=O)N1N=C(Cn2c([N+](=O)[O-])cnc2C)OC1(C)c1ccc([N+](=O)[O-])cc1 (centres undefined)									0.25 to 0.5 µg/mL (≈ 0.644 to 1.29 µM)	0.25 to 0.5 µg/mL	0.25 to 0.5 µg/mL (≈ 0.644 to 1.29 µM)	0.25 to 0.5 µg/mL (≈ 0.644 to 1.29 µM)	0.25 to 0.5 µg/mL (≈ 0.644 to 1.29 µM)
CC(=O)N1N=C(Cn2c([N+](=O)[O-])cnc2C)OC1(C)c1ccc(Br)cc1 (centres undefined)									0.25 to 0.5 µg/mL (≈ 0.592 to 1.18 µM)	0.25 to 0.5 µg/mL	0.25 to 0.5 µg/mL (≈ 0.592 to 1.18 µM)	0.25 to 0.5 µg/mL (≈ 0.592 to 1.18 µM)	0.25 to 0.5 µg/mL (≈ 0.592 to 1.18 µM)
